Data on five molecules can be found in patent publication US11124788B2, “Asx-specific protein ligase” (NANYANG TECHNOLOGICAL UNIVERSITY, priority 2014, dated 2021).

Like-named read-outs stand apart in the source and are kept apart here. Residues, ends and D or L forms follow the SMILES beside them. *: point of attachment. AMC = Cc1cc(=O)oc2cc(N*)ccc12; Cbz = O=C(OCc1ccccc1)* Where only a bound is given, the exact number is not on record here.

For data set [1], the system named is butelase 1. Briefly: In vitro cyclization of peptide/protein substrates by butelase 1 (HPLC/MS yield). Format: biochemical, Clitoria ternatea.
The subject of data set [2] is butelase 1. Nature of the data set: Michaelis-Menten kinetics of butelase 1 as a peptide cyclase. The format is biochemical, Clitoria ternatea.
For data set [3], the system named is butelase 1. Nature of the data set: Hydrolysis of Z-AAN-AMC by butelase 1 (asparaginyl endopeptidase activity). The format is biochemical, Clitoria ternatea. The note with it: 50 mM Z-AAN-AMC, 30 h.
The target of data set [4] is T1, jack bean legumain (Canavalia ensiformis, UniProt P49046).
T1 construct: purchased Takara Bio (Japan)
T1 sequence (P49046 36-475): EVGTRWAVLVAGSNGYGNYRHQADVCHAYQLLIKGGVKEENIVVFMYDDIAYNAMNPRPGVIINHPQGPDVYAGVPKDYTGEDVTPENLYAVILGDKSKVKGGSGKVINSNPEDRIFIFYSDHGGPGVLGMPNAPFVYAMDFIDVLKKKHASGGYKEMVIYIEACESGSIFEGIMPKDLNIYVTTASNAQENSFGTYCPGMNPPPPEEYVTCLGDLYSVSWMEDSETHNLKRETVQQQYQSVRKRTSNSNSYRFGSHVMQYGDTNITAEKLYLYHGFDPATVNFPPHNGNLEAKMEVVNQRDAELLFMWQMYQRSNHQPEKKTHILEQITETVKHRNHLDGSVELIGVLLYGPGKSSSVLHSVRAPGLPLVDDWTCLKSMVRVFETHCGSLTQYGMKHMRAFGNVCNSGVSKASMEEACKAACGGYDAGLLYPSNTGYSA
Nature of the data set: Hydrolysis of Z-AAN-AMC by jack bean legumain (positive control). The format is biochemical. The note with it: same experimental conditions, 30 h.

The nature of data set [5]: Solubility of butelase 1 in water.
Data set [6] is described as follows: Storage stability of purified butelase 1. As to conditions: 30 days at 4° C.
Setting [7] is: butelase 1 cyclization, 37° C., 0.125 μM enzyme, 12 min (SA-kB1-NHV: 5 nM, 6 min).

For “SFTI-NHV: SEQ ID NO:135, GRCTKSIPPICFPNHV; 16-residue linear substrate”, the “Cyclization efficiency, SFTI-NHV compared with SFTI-DHV” value in data set [1] was “significantly more efficient”. Further, in data set [2] (setting [7]), the Km (commonly the concentration of substrate that gives half-maximal velocity) stood at 51 ± 4 µM; the kcat – broadly, the number of substrate molecules converted per active site and unit of time at saturation – amounted to 0.6 ± 0.02 s⁻¹. In addition, the kcat in data set [2] (butelase 1 cyclization, 37° C., 0.125 μM enzyme, 12 min (SA-kB1-NHV: 5 nM, 6 min), listed as SFT1-NHV) is 0.6 ± 0.02 s⁻¹.

As to Apelin, in data set [2], the Km was 6.7 ± 1.4 µM and the kcat was found to be 5.78 ± 0.25 s⁻¹.

For `Cc1cc(=O)oc2cc(NC(=O)[C@H](CC(N)=O)NC(=O)[C@H](C)NC(=O)[C@H](C)NC(=O)OCc3ccccc3)ccc12` [Z-AAN-AMC, N-carbobenzyloxy-Ala-Ala-Asn-7-amido-4-methylcoumarin] (Cbz-Ala-Ala-Asn-{AMC}), the “Hydrolyzed product formed (RP-HPLC)” value in data set [3] is below 3%. Besides, in data set [4], the “Hydrolysis of Z-AAN-AMC” value is “completely hydrolyzed”.

With Neuromedin ∪, in data set [2], the Km stood at 8.7 ± 2.1 µM and the kcat was found to be 5.78 ± 0.36 s⁻¹.

B1: butelase 1: Asx-specific peptide ligase/cyclase isolated from Clitoria ternatea, amino acid sequence SEQ ID NO:1 (protein, listed as Clitoria ternatea)
chain: VEGTRWAVLVAGSKGYVNYRHQADVCHAYQILKKGGLKDENIIVFMYDDIAYNESNPHPGVIINHPYGSDVYKGVPKDYVGEDINPPNFYAVLLANKSALTGTGSGKVLDSGPNDHVFIYYTDHGGAGVLGMPSKPYIAASDLNDVLKKKHASGTYKSIVFYVESCESGSMFDGLLPEDHNIYVMGASDTGESSWVTYCPLQHPSPPPEYDVCVGDLFSVAWLEDCDVHNLQTETFQQQYEVVKNKTIVALIEDGTHVVQYGDVGLSKQTLFVYMGTDPANDNNTFTDKNSLGTPRKAVSQRDADLIHYWEKYRRAPEGSSRKAEAKKQLREVMAHRMHIDN
For B1, in data set [1] (GFP as a model protein), the “Catalytic rate relative to sortase A” value is given as ~10,000. Further, in data set [2] (highest value stated in the summary), the Catalytic activities is listed as ≤ 542,000 M^−s^−1. Also, the “Solubility in water (concentration achieved)” value in data set [5] is 10 mg/mL. The “Stability of enzyme activity” value in data set [6] is “minimal loss of activity”.
